According to patent US8974793B2, “Methods and systems for inducing immunologic tolerance to non-self antigens” (The Governors Of The University Of Alberta, priority 2008, dated 2015):

Test: Blood plasma stability of A type I antigen functionalized silica-coated stainless steel (modified ELISA readout)
Assay type: in vitro ADME, pig
Details: I-14 bound to silica-coated stainless steel, 12 days agitation
Procedure: Several silica-coated stainless steel samples bearing the A type I antigen were prepared, according to the general procedure defined above. Each of the samples was placed in three different types of pig blood plasma (blood group O, blood group A and commercial pooled blood group O plasma). The samples were agitated on a shaker table for 12 days. After 12 days, the samples were removed from the pig blood plasma and placed in ethanol.
Each silica-coated stainless steel stent surface was treated with a solution of 2% BSA in PBST (200 μL) and shaken (14 h, 5° C.). The surface was then removed and then incubated with mouse anti-A IgM antibodies (5° C., 14 h, 0.023 mg/mL, 50 μL). The surface was then removed, thoroughly washed with PBST and then treated with a secondary HRP conjugated goat anti-mouse IgM antibody (21° C., 3 h, 0.013 mg/mL, 50 μL). The surface was thoroughly washed with PBST to remove unbound antibody and then treated with a solution of SigmaFast OPD (200 μL, 1 h). An aliquot of this solution (100 μL) was then taken and the absorbance measured at 450 nm.

Measured: attachment of antigen to silica-coated stainless steel after plasma incubation (modified ELISA, anti-A IgM, absorbance 450 nm)

CO[Si](CCCSCCCCCCCCO[C@@H]1O[C@H](CO)[C@@H](O)[C@H](O[C@@H]2O[C@H](CO)[C@H](O)[C@H](O[C@H]3O[C@H](CO)[C@H](O)[C@H](O)[C@H]3NC(C)=O)[C@H]2O[C@@H]2O[C@@H](C)[C@@H](O)[C@@H](O)[C@@H]2O)[C@H]1NC(C)=O)(OC)OC [I-14, 8-(3-(trimethoxysilyl)propylthio)octan-1-yl 2-N-Acetyl-3-O-(3-O-(2-N-acetyl-2-deoxy-α-D-galactopyranosyl)-2-O-(α-L-fucopyranosyl)-β-D-galactopyranosyl)-2-deoxy-β-D-glucopyranoside]
confirming the attachment: pig A blood plasma | pig O blood plasma | pig-pooled O blood plasma
